Measurements as given in patent US20130303564A1, “METHOD FOR TREATING A NEURODEGENERATIVE DISORDER” (RUSH UNIVERSITY MEDICAL CENTER, priority 2012, published 2013).

Experiments:
[1] = test system: iNOS
Method: Primary mouse microglia were treated with different concentrations of NaPB for 6 h followed by stimulation with LPS under serum-free condition. After 24 h of stimulation, concentrations of nitrite were measured in supernatants (A) and the level of iNOS protein was monitored in cells by Western blot (B). […] After 5 h of stimulation, the expression of iNOS mRNA was monitored by semi-quantitative RT-PCR (C). Cells preinctibated with different concentration of trichostatin A (TSA) and sodium butyrate (NaBu) for 6 h were stimulated with LPS for 24 h under serum-free condition followed by monitoring the level of nitrite in supernatants (p). […] Primary human astroglia isolated from fetal brain tissues were treated with different concentrations of NaPB for 6 h followed by stimulation with IL-1β under serum-free condition. After 48 h of stimulation, concentrations of nitrite (E) were measured in supernatants. Human astroglia plated at 70-80% confluence in 12-well plates were co-transfected with 0.25 μg of phiNOS(7.2)Luc and 12.5 ng of pRL-TK using the Lipofectamine-Plus (Invitrogen). Twenty-four h after transfection, cells received NaPB. After 6 h of incubation, cells were stimulated with IL-1β (20 ng/ml) for 12 h. Firefly (ff-Luc) and Renilla (r-Luc) luciferase activities were obtained by analyzing the total cell extract (F). […]

[2] = test system: NF-κB; assay: Transcriptional activity of NF-κB (PBIIX-Luc reporter) in BV-2 microglial cells; assay type: cell-based, mouse
Method: Transcriptional activity of NF-κB: Transcriptional activity of NF-κB was assayed. […] After 24 h of transfection, […], and firefly and Renilla luciferase activities were recorded in a TD-20/20 Luminometer (Turner Designs, Sunnyvale, Calif.) by analyzing total cell extract according to standard instructions provided in the Dual Luciferase Kit (Promega), Relative luciferase activity of cell extracts was typically represented as (firefly luciferase value/Renilta luciferase value)×10^−3.

[3] = test system: IL-1β; details: different concentrations, 6 h preincubation, 1 μM MPP+ 5 h
Method: Mouse BV-2 microglial cells were treated with different concentrations of NaPB for 6 h followed by stimulation with 1 μM. MPP under serum-free condition. After 5 h of stimulation, the mRNA expression of iNOS, IL-1β and TNF-α was monitored by semi-quantitative RT-PCR (A) and quantitative real-time PCR (C, iNOS; D, IL-1β; E, TNF-α). After 24 h of stimulation, the protein expression of iNOS was monitored by Western blot (B).
Glial inflammation is a critical component of PD pathogenesis which is mirrored in MPTP mouse models. The neurotoxic effect of MPTP depends on its conversion into MPP+. In glial cells, MAO-B converts MPTP to MPP+, which then leads to glial activation. MPP+ is able to stimulate the microglial expression of inflammatory molecules including NO, TNF-α, IL-1β, and IL-6. Although, a well characterized receptor for MPP+ was not known in microglial cells until recent past, low dose of MPP+ stimulates microglial activation via the engagement of cysteinyl leukotriene receptor (CysLT1R), MPP+ dependent activation of CysLT1R and its subsequent translocation from plasma membrane to cytosol plays a critical role in the process of microglial activation. Therefore, we investigated MPP+ could induce the expression of proinflammatory molecules microglia and if NaPB suppressed such induction.
Real-time PCR analysis: It was performed in the ABI-Prism7700 sequence detection system (Applied Biosystems, Foster City, Calif.) using TaqMan Universal Master mix and optimized concentrations of FAM-labeled probes and primers.

[4] = test system: BV-2 microglial cells; assay: Superoxide production in microglial cells; assay type: cell-based, mouse; details: 500 μM
From the text: Results represent three independent experiments.
Superoxide measurements: Superoxide production was detected by LumiMax™ Superoxide Anion Detection Kit (Stratagene) as described by us (30).

[5] = test system: MPTP-intoxicated mice; assay: Locomotor and open-field activities in acute MPTP-intoxicated mice; assay type: in vivo, mouse; details: NaPB 200 mg/kg body wt/day from 3 h after last MPTP; 7 d
Method: Mice receiving FTI, GGTI or the combination of the two via daily intraperitoneal injection from 3h after the last injection of MPTP were tested for motor functions (B, horizontal activity; C, total distance; D, number of movement; E, stereotypy) 7 d after the last injection of MPTP followed by measuring DA in striatum (A).
The ultimate therapeutic goal of neuroprotection is to decrease functional impairment. Therefore, to examine whether NaPB protects not only against structural and neurotransmitter damage but also against functional deficits caused by MPTP, we monitored locomotor and open-field activities. MPTP injection caused marked decrease in rotorod performance (FIG. 15A), movement time (FIG. 15B), total distance (FIG. 15C), stereotypy (FIG. 15E), rearing (FIG. 15F), and horizontal activity (FIG. 15G). On the other hand, MPTP increased the rest time (FIG. 15D).
Therefore, we investigated if inhibition of either p21^ras or p21^rac alone was sufficient for the protection of the nigrostriatum. MPTP-intoxicated mice received FTI and GGTI, either separately at 10 mg/kg body wt/d or together at 5 mg/kg body wt/d, via i.p. injection from 3 h after the last injection of MPTP. […]
Behavioral analyses: Two types of behavioral experiments were conducted. […] Locomotor activity measures were assessed after baseline value comparison.

[6] = test system: RelA p65 at the mouse iNOS promoter; details: 0.5 mM, 6 h preincubation, LPS 2 h; proximal NF-κB binding site
Method: D) Cells preincubated with 0.5 mM NaPB for 6 h were stimulated with LPS for 2 h followed by monitoring the recruitment of RelA p65 to the mouse iNOS promoter by ChIP assay.
Therefore, next we examined the effect of NaPB on the recruitment of p65 to the proximal NF-κB binding site of the iNOS promoter.
Chromatin immunoprecipitation (CUP): ChIP assays were performed using a ChIP assay kit (Upstate Biotechnology, Lake Placid, N.Y.). Briefly, 2×10^6 microglial cells preincubated with gemfibrozil for 6 h were stimulated with LPS. After 3 h of stimulation, cells were fixed by adding formaldehyde (1% final concentration), and cross-linked adducts were resuspended and sonicated, resulting in an average chromatin fragment size of 400 bp. ChIP was performed on the cell lysate by overnight incubation at 4° C. with 2 μg of antibodies against p65 followed by incubation with protein G agarose (Santa Cruz Biotechnology) for 2 h. The beads were washed and incubated with elution buMr. To reverse the cross-linking and purify the DNA, precipitates were incubated in a 65° C. incubator overnight and digested with proteinase K. DNA samples were then purified, precipitated, and precipitates were washed with 75% ethanol, air-dried, and resuspended in TE buffer.

[7] = test system: dopaminergic neurons of MPTP-intoxicated mice; details: 200 mg/kg body wt/day from 3 h after last MPTP, 7 d
Method: Mice receiving NaPB (200 mg/kg body wt/day) from 3 h after the last injection of MPTP were sacrificed 7d after the last injection of MPTP followed by TH immunostaining of SNpc (A) and striatum (B), counting of TH-positive neurons in SNpc (C), quantification of TH-positive fibers in striatum (D), assay of neurotransmitters in striatum (E), and quantification of GSH in nigra (F). Data are means+SEM of eight mice per group. ^ap<0.0001 vs saline group; ^bp<0.0001 vs the MPTP group.
For acute MPTP intoxication, mice received four intraperitoneal (i.p.) injections of MPTP-HCl (18 mg/kg of free base; Sigma Chemical Co., St. Louis, Mo.) in saline at 2 hr intervals. Control animals received only saline. For chronic MPTP intoxication, mice received 10 injections of MPTP (s.c.; 25 mg/kg body weight) together with 10 injections of probenecid (i.p.; 250 mg/kg body weight) at an interval of 3.5 d.
Therefore, for short-term treatment, mice with acute MPTP 3 h after the last injection of MPTP. […]
Immunohistochemistry and quantitative morphology: Seven days after MPTP intoxication, mice were sacrificed and their brains fixed, embedded, and processed for tyrosine hydroxylase (TH) staining. […] Quantitation of striatal TH immunostaining was performed. […]

[8] = test system: MPTP-intoxicated mice; details: NaPB 200 mg/kg body wt/day from 3 h after last MPTP; MPTP alone approximately 72% loss
Method: We monitored the level of nigral GSH by HPLC.
Analysis of GSH: Nigral tissues were dissected and then sonicated in 0.2M perchloric acid solution followed by centrifugation of nigral extracts at 12,000 rpm for 10 mins at 4° C. Resulting supernatants were analyzed for GSH in Complete Stand-Alone HPLC-ECD System EiCOMHTEC-500 using gold working electrode (Eicorn We-AU) and mobile phase containing 99% 0.1M sodium phosphate buffer (pH 2.5), 1% MeOH. (v/v), and 50 mg/L EDTA-2Na.

## sodium phenylbutyrate [NaPB]
[1]; RT-PCR, 5 h LPS
  LPS-induced mRNA expression of iNOS: dose-dependently inhibited
[1]; Western blot, 24 h LPS
  LPS-induced protein expression of iNOS: dose-dependently inhibited
[2]; RasV12-transfected cells, NaPB 6 h
  RasV12-induced activation of NF-κB: attenuated
[2]; different concentrations, 6 h preincubation
  LPS-induced transcriptional activity of NF-κB: suppressed
[3]
  MPP+-induced expression of IL-1β mRNA: inhibited
[4]; 6 h, 1 μM MPP+
  MPP+-induced production of superoxide: attenuated
[4]; 6 h preincubation, 10 min stimulation
  LPS-, TNF-α-, IL-1β-, gp120-, and Aβ-induced production of superoxide: knocked down
[5]
  MPTP-induced hypolocomotion (rotorod, movement time, total distance, rest time, stereotypy, rearing, horizontal activity): significantly improved
[6]
  recruitment of p65 to the iNOS promoter: inhibited
[7]; vs MPTP alone (70% reduction)
  reduction in striatal TH ODs: less reduction
[7]; vs MPTP alone (approximately 75% loss)
  reduction in SNpc TH-positive neurons: less reduction
[8]
  loss of nigral GSH: 18%
